Results taken from US5306824A, “Biotinylated isocoumarins” (Georgia Tech Research Corporation, priority 1992, dated 1994).

Columns and labels:
chymotrypsin [1] = target: T1, chymotrypsin (Bos taurus, UniProt P00766); test: Inactivation of chymotrypsin by biotin-isocoumarins (incubation method); assay type: biochemical, bovine; settings: 0.1 M Hepes, 0.5 M NaCl, pH 7.5, 5-10% Me2SO, 25° C., two values given for some compounds; for kinact/KI: pH 7.5, inhibitor 20-400 μM, read-out: kobs/[I] Chymotrypsin
Method: (§1) Inactivation rates of serine proteases by substituted isocoumarins were measured by the incubation method. An aliquot of inhibitor (25 or 50 μl) in Me2 SO was added to a buffered enzyme solution (0.01-2.3 μM) to initiate the inactivation. Aliquots (50-100 μl) were withdrawn at various intervals and the residual enzymatic activity was measured. Me2 SO concentration in the reaction mixture was 8-12% (v/v). 0.1M Hepes, 0.5M NaCl, pH 7.5 buffer was utilized for the assays of chymotrypsin, cathepsin G (cat G), porcine pancreatic elastase (PPE), human leukocyte elastase (HLE) and rat granule serine proteases. 0.1M Hepes, 0.01M CaCl2, pH 7.5 buffer was utilized for the assays of trypsin and human recombinant (HR) granzyme A. The inhibitor concentrations are shown in the Tables I and II. Peptide nitroanilides with appropriate sequence were used as substrates for various serine proteases. All peptide 4-nitroanilide hydrolysis was measured at 410 nm (ε410 =8800M^-1 cm^-1; Erlanger et al., Arch. Biochem. Biophys. 95, pp 271-278 (1961), incorporated herein by reference). Peptide thioester hydrolysis rates were measured with assay mixtures containing 4,4'-dithiodipyridine (ε324 =19800M^-1 cm^-1; Grasetti & Murray, Arch. Biochem. Biophys. 119, pp. 41-49 (1967), incorporated herein by reference). First order inactivation rate constant (kobs) were obtained from plots of ln (vt /vo) vs time, and the correlation coefficients were greater than 0.98.
(§2) ^a Inhibition was measured in 0.1 M Hepes, 0.5 M NaCl (or 0.01 M
(§3) CaCl2), pH 7.5 buffer, 5-10% Me2 SO and at 25° C.
(§4) SucVal-Pro-NA (0.48 mM) was used as the substrate for chymotrypsin and ca
^b Inhibitor concentrations were 20-400 μM.

Rat Granule Chymase [2] = test: Reactivation of inhibited rat granule chymase with NH2OH; assay type: biochemical; settings: 0.4 M NH2OH, immediately after addition
Method: (§5) ^a Inhibition was performed at 0.1 M Hepes, 0.5 M NaCl, pH 7.5 buffer
(§6) 10% Me2 SO and 25° C. Reactivation was carried out in the
presence of 0.4 M of NH2 OH, and occurred immediately after the […]

chymotrypsin [3] = target: T1, chymotrypsin; test: Reactivation of inhibited chymotrypsin in buffer and with NH2OH; assay type: biochemical, bovine; settings: for % of Enzyme Activity Reactivated, Chymotrypsin +NH2OH: 0.4 M NH2OH, immediately after addition; for % of Enzyme Activity Reactivated, Chymotrypsin in buffer: after removal of excess inhibitor, 25° C. for two days
Method: as §5, §6
(§7) presence of 0.4 M of NH2 OH, and occurred immediately after the
(§8) ^b Enzyme activity was measured after removal of excess inhibitor by
(§9) centrifugation at 0° C. with centricon10 microconcentrator and
(§10) staying at 25° C. for two days.

trypsin = target: T2, trypsin (Bos taurus, UniProt P00760); test: Inactivation of trypsin by biotin-isocoumarins (incubation method); assay type: biochemical; settings: inhibitor 41-42 μM; 0.1 M Hepes, 0.01 M CaCl2, pH 7.5, 25° C.; read-out: kobs/[I] Trypsin
T2 sequence (P00760 24-246): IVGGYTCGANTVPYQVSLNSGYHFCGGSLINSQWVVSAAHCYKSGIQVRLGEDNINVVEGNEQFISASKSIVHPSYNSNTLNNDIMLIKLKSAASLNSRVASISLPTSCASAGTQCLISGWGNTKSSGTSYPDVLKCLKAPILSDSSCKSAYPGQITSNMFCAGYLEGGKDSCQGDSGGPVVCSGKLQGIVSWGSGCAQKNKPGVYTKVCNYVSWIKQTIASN
Method: as §1, §2, §3
ZGlu-Phe-Arg-NA (0.032 mM) was a substrate for trypsin. ZArg-SBzl (0.120
^f Inhibitor concentrations were 41-42 μM.

[4] = target: T3, human leukocyte elastase (HLE) (Homo sapiens, UniProt P08246); test: Inactivation of human leukocyte elastase by biotin-isocoumarins (incubation method); assay type: biochemical; settings: inhibitor 1.6-210 μM; pH 7.5, 25° C.; read-out: kobs/[I] HLE
T3 sequence (P08246 30-267): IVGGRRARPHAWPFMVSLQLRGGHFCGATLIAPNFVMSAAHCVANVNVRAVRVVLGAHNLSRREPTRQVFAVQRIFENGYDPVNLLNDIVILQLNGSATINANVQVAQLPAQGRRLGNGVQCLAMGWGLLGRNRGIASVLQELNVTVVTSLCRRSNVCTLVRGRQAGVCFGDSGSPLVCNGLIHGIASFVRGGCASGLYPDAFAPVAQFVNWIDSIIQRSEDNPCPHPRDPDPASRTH
Method: as §1, §2, §3
(§11) G. MeOSuc-Ala-Ala-Pro-Val-NA (0.24-0.47 mM) and SucAla-Ala-Ala-NA
(§12) (0.29-0.48 mM) were used as the substrate for HLE and PPE respectively.
^d Inhibitor concentrations were 1.6-210 μM.

Rat Granule Tryptase = test: Inhibition of rat granule tryptase; assay type: biochemical; settings: [I] 0.078 mM or 0.2 mM as per table line; pH 7.5, 10% Me2SO, 25° C.
Method: as §1, with “First order inactivation rate constant (kobs) were obtained from plots of ln (vt /vo) vs time, and the correlation coefficients were greater than 0.98.” left out
(§13) ^a Inhibition was measured in 0.1 M Hepes, 0.5 M NaCl, pH 7.5 buffer, […]

Rat Granule Chymase [5] = test: Inhibition of rat granule chymase; assay type: biochemical; settings: inhibition not time dependent, pH 7.5, 10% Me2SO, 25° C.
Method: as §1, with “First order inactivation rate constant (kobs) were obtained from plots of ln (vt /vo) vs time, and the correlation coefficients were greater than 0.98.” left out
as §13

chymotrypsin [6] = target: T1, chymotrypsin; test: Effect of streptavidin and avidin on reactivation of inhibited chymotrypsin; assay type: biochemical, bovine; settings: monitored for two days; for % of Regained Enzyme Activity, Chymotrypsin, +Streptavidin: 3-4 units streptavidin, 2880 min; for % of Regained Enzyme Activity, Chymotrypsin, Buffer: pH 7.5, 8% Me2SO, 25° C.
Method: (§14) ^a Percentage of regained enzymatic activity was measured in 0.1 M
(§15) Hepes, 0.5 M NaCl, pH 7.5 buffer, 8% Me2 SO and at 25° C.
(§16) Excess inhibitor was removed from enzymeinhibitor mixture by
(§17) centrifugation twice with Amicon microconcentrator10. Then 3-4 units of
(§18) avidin or strepavidin was added and enzymatic activity was monitored for […]

PPE [7] = target: T4, PPE (Sus scrofa, UniProt P00772); test: Reactivation of inhibited PPE in buffer and with NH2OH; assay type: biochemical, porcine
T4 sequence (P00772 27-266): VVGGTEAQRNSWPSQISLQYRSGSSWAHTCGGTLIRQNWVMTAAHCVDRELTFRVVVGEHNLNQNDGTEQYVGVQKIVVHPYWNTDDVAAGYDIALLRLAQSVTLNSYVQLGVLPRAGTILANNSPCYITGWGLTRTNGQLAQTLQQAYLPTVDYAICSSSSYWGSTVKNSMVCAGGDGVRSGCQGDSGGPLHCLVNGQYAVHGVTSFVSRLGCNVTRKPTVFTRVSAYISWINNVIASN
Method: as §5, §6, §7, §8, §9, §10

PPE [8] = target: T4, PPE; test: Effect of streptavidin and avidin on reactivation of inhibited PPE; assay type: biochemical, porcine; settings: monitored for two days
Method: as §14, §15, §16, §17, §18

[9] = target: porcine pancreatic elastase (PPE) (Sus scrofa, UniProt P00772); test: Inactivation of porcine pancreatic elastase by biotin-isocoumarins (incubation method); assay type: biochemical; settings: inhibitor 38-78 μM; pH 7.5, 25° C.; NI = no inhibition after 10 min of incubation; read-out: kobs/[I] PPE
Chain of porcine pancreatic elastase (PPE) (P00772 27-266): as above
Method: as §1, §2, §3, §11, §12
^e Inhibitor concentrations were 38-78 μM.
(§19) ^h No inhibition after 10 min of incubation of inhibitor and enzyme.

cathepsin G (cat G) = target: T5, cathepsin G (cat G) (Homo sapiens, UniProt P08311); test: Inactivation of cathepsin G by biotin-isocoumarins (incubation method); assay type: biochemical; settings: inhibitor 75-400 μM; pH 7.5, 25° C.; NI = no inhibition after 10 min of incubation; read-out: kobs/[I] Cat. G
T5 sequence (P08311 21-255): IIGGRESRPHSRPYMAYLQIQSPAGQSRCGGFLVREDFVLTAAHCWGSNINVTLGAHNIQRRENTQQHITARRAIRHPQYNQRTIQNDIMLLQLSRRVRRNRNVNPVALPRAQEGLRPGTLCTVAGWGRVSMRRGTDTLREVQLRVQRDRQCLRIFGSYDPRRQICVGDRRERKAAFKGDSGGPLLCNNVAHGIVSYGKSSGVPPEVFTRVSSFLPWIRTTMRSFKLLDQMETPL
Method: as §1, §2, §3, §4, §11
^c Inhibitor concentrations were 75-400 μM.
as §19
^i Percentage of inhibition after 10 min of incubation of inhibitor

Row | kobs/[I] Chymotrypsin (chymotrypsin [1]; inhibitor 20-400 μM) [M⁻¹ s⁻¹] | kinact/KI (chymotrypsin [1]) [M⁻¹ s⁻¹] | % of Enzyme Activity Reactivated, Rat granule chymase +NH2OH (Rat Granule Chymase [2]) | % of Enzyme Activity Reactivated, Chymotrypsin +NH2OH (chymotrypsin [3]) [%] | % of Enzyme Activity Reactivated, Chymotrypsin in buffer (chymotrypsin [3]) [%] | kinact/KI (trypsin) [M⁻¹ s⁻¹] | kinact/KI [4] [M⁻¹ s⁻¹] | Rat Granule Tryptase kobs/[I] (Rat Granule Tryptase) [M⁻¹ s⁻¹] | Rat Granule Chymase % of inhibition (Rat Granule Chymase [5]; [I] 0.2 mM) | % of Regained Enzyme Activity, Chymotrypsin, +Streptavidin (chymotrypsin [6]) [%] | % of Regained Enzyme Activity, Chymotrypsin, Buffer (chymotrypsin [6]) [%] | % of Enzyme Activity Reactivated, PPE +NH2OH (PPE [7]; 0.4 M NH2OH, immediately after addition) [%] | % of Enzyme Activity Reactivated, PPE in buffer (PPE [7]; after removal of excess inhibitor, 25° C. for two days, 2880 min) [%] | % of Regained Enzyme Activity, PPE, +Avidin (PPE [8]; 3-4 units avidin, 2880 min) [%] | % of Regained Enzyme Activity, PPE, +Streptavidin (PPE [8]; 3-4 units streptavidin, 2880 min) [%] | % of Regained Enzyme Activity, PPE, Buffer (PPE [8]; pH 7.5, 8% Me2SO, 25° C.) [%] | kinact/KI [9] [M⁻¹ s⁻¹] | kinact/KI (cathepsin G (cat G)) [M⁻¹ s⁻¹] | Rat Granule Chymase % of inhibition (Rat Granule Chymase [5]; [I] 0.078 mM) | Structure (SMILES)
1 | 165 | 330 | 100% | 100 | 15 | 1.1 | 740 | 2 to 3 | 10-20% | 27 | 10 | – | – | – | – | – | – | – | – | O=C(CCCC[C@@H]1SC[C@@H]2NC(=O)N[C@@H]21)Nc1ccc2c(Cl)c(OCCc3ccccc3)oc(=O)c2c1 [Compound 1, 7-biotinylamino-4-chloro-3-(2-phenylethoxy)isocoumarin]
2 | – | 65 | – | – | – | 2.2 | 19900 | – | – | – | – | 98 | 35 | 32 | 51 | 35 | 470 | 6.7 | – | CCCOc1oc(=O)c2cc(NC(=O)CCCC[C@@H]3SC[C@@H]4NC(=O)N[C@@H]43)ccc2c1Cl [Compound 2, 7-biotinylamino-4-chloro-3-propoxyisocoumarin]
3 | – | – | 30-50% | 100 | 10 | 1 | 670 | 6 to 12 | – | 39 | 15 | – | – | – | – | – | – | – | 30-50% | O=C(CCCC[C@@H]1SC[C@@H]2NC(=O)N[C@@H]21)NCCCCCC(=O)Nc1ccc2c(Cl)c(OCCc3ccccc3)oc(=O)c2c1 [Compound 3, 7-(6-biotinylaminocaproyl)amino-4-chloro-3-(2-phenylethoxy)isocoumarin]
